What is called IC50 is the point on the concentration scale where inhibition reaches its midpoint. A higher IC50 goes with a need for much substance.

SMILES strings stand for the structures.

The results in this text go back to patent US8541410B2, “Sulfur substituted sulfonylaminocarboxylic acid N-arylamides, their preparation, their use and pharmaceutical preparations comprising them” (Sanofi-aventis Deutschland GmbH, priority 1998, dated 2013).

Experiment [1] concerns the target T1, soluble guanylate cyclase (sGC) (Bos taurus, UniProt P16068).
T1 construct: The sGC which was employed had been isolated from bovine lung; from tissue; host or cells: bovine lung
T1 sequence (P16068 1-619): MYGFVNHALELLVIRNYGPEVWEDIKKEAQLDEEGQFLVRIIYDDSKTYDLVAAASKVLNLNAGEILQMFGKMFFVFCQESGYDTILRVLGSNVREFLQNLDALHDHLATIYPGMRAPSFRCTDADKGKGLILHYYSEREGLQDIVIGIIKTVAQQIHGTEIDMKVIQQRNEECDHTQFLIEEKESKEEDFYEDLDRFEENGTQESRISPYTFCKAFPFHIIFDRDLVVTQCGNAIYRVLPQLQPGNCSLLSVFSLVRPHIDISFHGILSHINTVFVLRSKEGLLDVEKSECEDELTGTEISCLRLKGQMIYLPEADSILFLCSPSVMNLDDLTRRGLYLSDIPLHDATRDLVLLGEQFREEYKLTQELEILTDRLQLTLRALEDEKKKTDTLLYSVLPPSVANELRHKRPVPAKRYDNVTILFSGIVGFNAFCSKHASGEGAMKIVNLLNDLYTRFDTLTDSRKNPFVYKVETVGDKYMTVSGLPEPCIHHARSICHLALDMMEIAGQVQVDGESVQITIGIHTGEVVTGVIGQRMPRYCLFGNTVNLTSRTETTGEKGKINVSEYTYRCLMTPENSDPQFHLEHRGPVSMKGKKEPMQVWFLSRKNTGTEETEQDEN
T1 sequence (P19687 1-691 partner): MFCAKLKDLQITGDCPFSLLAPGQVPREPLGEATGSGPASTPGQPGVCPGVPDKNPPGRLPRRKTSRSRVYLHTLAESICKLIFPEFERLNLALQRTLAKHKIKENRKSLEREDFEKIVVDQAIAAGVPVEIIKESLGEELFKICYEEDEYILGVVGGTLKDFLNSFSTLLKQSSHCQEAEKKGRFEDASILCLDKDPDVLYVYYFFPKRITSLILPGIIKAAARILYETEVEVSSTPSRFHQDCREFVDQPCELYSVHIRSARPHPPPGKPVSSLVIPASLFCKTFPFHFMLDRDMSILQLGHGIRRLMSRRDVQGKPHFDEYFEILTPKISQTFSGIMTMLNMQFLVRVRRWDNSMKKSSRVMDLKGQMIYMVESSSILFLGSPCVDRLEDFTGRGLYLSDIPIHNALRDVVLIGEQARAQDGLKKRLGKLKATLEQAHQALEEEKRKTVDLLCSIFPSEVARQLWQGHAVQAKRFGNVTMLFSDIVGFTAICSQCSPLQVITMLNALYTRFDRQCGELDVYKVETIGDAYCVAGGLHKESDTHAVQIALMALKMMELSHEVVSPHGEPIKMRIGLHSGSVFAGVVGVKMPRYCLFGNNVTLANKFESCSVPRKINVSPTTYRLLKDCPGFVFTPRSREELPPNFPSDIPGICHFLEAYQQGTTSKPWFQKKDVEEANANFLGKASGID
Put plainly: Activation of the soluble guanylate cyclase (cGMP enzyme immunoassay). In kind it is biochemical, bovine. Conditions: n-fold stimulation of basal enzyme activity. As to the method: The activation of the soluble guanylate cyclase (sGC) which catalyzes the conversion of guanosine triphosphate (GTP) into cyclic guanosine monophosphate (cGMP) and pyrophosphate, by the compounds according to the invention was quantified with the aid of an enzyme immunoassay (EIA) from Amersham. For this purpose the substances to be tested were initially incubated with sGC in microtiter plates, and the amount of the cGMP formed was then determined.
The sGC which was employed had been isolated from bovine lung (see Methods in Enzymology, Volume 195, p. 377). The test solutions (100 μl per well) contained 50 mM triethanolamine (TEA) buffer (pH 7.5), 3 mM MgCl2, 3 mM reduced glutathione (GSH), 0.1 mM GTP, 1 mM 3-isobutyl-1-methylxanthine (IBMX), suitably diluted enzyme solution and the substance to be tested or, in the control experiments, the solvent. The substances to be tested were dissolved in dimethyl sulfoxide (DMSO) and the solution was diluted with DMSO/water, so that the final concentration (c) of the substance to be tested in the test solution had the value indicated in the table. The DMSO concentration in the test solution was 5% (v/v). The reaction was initiated by addition of the sGC. The reaction mixture was incubated at 37° C. for 15 to 20 minutes and then stopped by ice-cooling and addition of the stop reagent (50 mM EDTA, pH 8.0). An aliquot of 50 μl was taken and used for determining the cGMP content using the acetylation protocol of the Amersham cGMP-EIA kit. The absorption of the samples was measured at 450 nm (reference wavelength 620 nm) in a microtiter plate reader. The cGMP concentration was determined using a standard curve which was obtained under the same test conditions. The activation of sGC by a test substance is given as the n-fold stimulation of the basal enzyme activity which was found in the control experiments (using solvent instead of test substance) (calculated using the formula n-fold stimulation=[cGMP]test substance/[cGMP]control).

Experiment [2] relates to rat aorta rings. Put plainly: Relaxation of rat aorta (phenylephrine-precontracted rings). Conditions: 50% relaxation of phenylephrine (1 μM) contraction. Format: cell-based, rat (Wistar-Kyoto). An excerpt: For this test, normotensive male Wistar-Kyoto rats were sacrificed by a blow to the neck. The abdominal cavity and the thorax were opened by a medium stemotomy. The descending aorta was subsequently removed, freed of connective tissue and divided into 8 rings of a length of approximately 4 mm. The tip of a pair of tweezers was introduced into the lumen of 4 of the 8 rings. The endothelium was removed by carefully rolling the rings over the tip of the pair of tweezers. All 8 aorta rings (4 with endothelium and 4 without endothelium) were subsequently suspended in an organ bath (Schuler-Organbad; Hugo Sachs Elektronik) at a constant temperature of 37° C. for the isometric determination of the contractile tone. For 30 minutes, the rings were calibrated at a resting tension of 0.1 g in carbonated (95% O2; 5% CO2) Krebs-Henseleit solution (composition: Na^+ 144.0 mM; K^+ 5.9 mM; Cl^− 126.9 mM; Ca^2+ 1.6 mM; […] 1.2 mM; H2PO4^− 1.2 mM; SO4^2− 1.2 mM; HCO3^− 25.0 mM; D-glucose 11.1 mM) of pH 7.4. Additionally, 1 μmol/l of indomethacin were added to the Krebs-Henseleit solution to inhibit prostaglandin biosynthesis. The rings were subsequently precontracted by addition of phenylephrine (concentration in the solution: 1 μM) and the endothelium-dependent relaxation or the functional loss of the endothelium was tested by addition of acetylcholine (concentration in the solution: 1 μM). After a 30-minute washing period, the rings were then again precontracted by addition of phenylephrine (1 μM), and the relaxing action of the test substances of the formula I was determined by administration of cumulative doses of the latter. The data were evaluated by standard methods. Given is the concentration IC50 by which contraction is inhibited by 50% (50% relaxation).

Take `COc1cc(NS(=O)(=O)c2ccc(Cl)cc2)c(C(=O)Nc2ccc(S(=O)(=O)N3CCSCC3)cc2)cc1OC` [Example 59, 2-(4-Chloro-phenylsulfonylamino)-4,5-dimethoxy-N-(4-(thiomorpholine-4-sulfonyl)-phenyl)-benzamide]: in experiment [1] (concentration c 50 μM), the n-fold stimulation is reported as 34.8. In addition, the figures for the IC50 in experiment [2] (ring with endothelium) and in experiment [2] (ring without endothelium) were 0.52 µM and 0.27 µM, respectively. For `O=C(Nc1ccc(S(=O)(=O)N2CCOCC2)cc1)c1cc(Cl)ccc1NS(=O)(=O)c1ccc(Cl)s1` [Example 129, 5-Chloro-2-(5-chloro-thiophene-2-sulfonylamino)-N-(4-(morpholine-4-sulfonyl)-phenyl)-benzamide] the same measures were 8.6, 0.46 µM and 0.31 µM. In experiment [1] (concentration c 10 μM), `COc1cc(NS(=O)(=O)c2c(C)noc2C)c(C(=O)Nc2ccc(S(=O)(=O)N(C)Cc3cccnc3)cc2)cc1OC` [Example 196, 4,5-Dimethoxy-2-(3,5-dimethyl-isoxazole-4-sulfonylamino)-N-(4-(N-methyl-N-(pyridin-3-yl-methyl)-aminosulfonyl)-phenyl)-benzamide] showed a n-fold stimulation of 21.9.

`COc1cc(NS(=O)(=O)c2ccc(Cl)s2)c(C(=O)Nc2ccc(S(=O)(=O)N3CCSCC3)cc2)cc1OC` [Example 206, 4,5-Dimethoxy-2-(5-chloro-thiophene-2-sulfonylamino)-N-(4-(thiomorpholine-4-sulfonyl)-phenyl)-benzamide] returned a n-fold stimulation in experiment [1] (concentration c 50 μM) of 19.3. On to `Cc1noc(C)c1S(=O)(=O)Nc1ccc(Cl)cc1C(=O)Nc1ccc(S(=O)(=O)N2CCc3ccccc3C2)cc1` [Example 208, 5-Chloro-2-(3,5-dimethyl-isoxazole-4-sulfonylamino)-N-(4-(1,2,3,4-tetrahydro-isoquinoline-2-sulfonyl)-phenyl)-benzamide], for which the n-fold stimulation in experiment [1] (concentration c 10 μM) came to 23.1. With `Cc1noc(C)c1S(=O)(=O)Nc1ccc(Cl)cc1C(=O)Nc1ccc(S(=O)(=O)N(C)Cc2cccnc2)cc1` [Example 209, 5-Chloro-2-(3,5-dimethyl-isoxazde-4-sulfonylamino)-N-(4-(N-methyl-N-(pyridin-3-yl-methyl)-aminosulfonyl)-phenyl)-benzamide], in experiment [1] (concentration c 10 μM), the n-fold stimulation turned out to be 28.5. Consider `Cc1noc(C)c1S(=O)(=O)Nc1ccc(Cl)cc1C(=O)Nc1ccc(S(=O)(=O)N2C[C@@H](C)O[C@@H](C)C2)cc1` [Example 222, 5-Chloro-2-(3,5-dimethyl-isoxazole-4-sulfonylamino)-N-(4-(cis-2,6-dimethyl-morpholine-4-sulfonyl)-phenyl)-benzamide], for which the n-fold stimulation in experiment [1] (concentration c 10 μM) is 29.5. Turning to `Cc1noc(C)c1S(=O)(=O)Nc1ccc(Cl)cc1C(=O)Nc1ccc(S(=O)(=O)N2CC(C)CC(C)C2)cc1` (stereo not drawn) [Example 223, 5-Chloro-2-(3,5-dimethyl-isoxazole-4-sulfonylamino)-N-(4-(3,5-dimethylpiperidine-1-sulfonyl)-phenyl)-benzamide], the n-fold stimulation in experiment [1] (concentration c 10 μM) stood at 27.1.

In turn, `Cc1noc(C)c1S(=O)(=O)Nc1ccc(Cl)cc1C(=O)Nc1ccc(S(=O)(=O)N2CCOCC2)cc1` [Example 224, 5-Chloro-2-(3,5-dimethyl-isoxazole-4-sulfonylamino)-N-(4-(morpholine-4-sulfonyl)-phenyl)-benzamide] gave a n-fold stimulation in experiment [1] (concentration c 50 μM) of 27.8. In experiment [1] (concentration c 10 μM), `O=C(Nc1ccc(S(=O)(=O)c2ccccc2)cc1)c1cc(Cl)ccc1NS(=O)(=O)c1ccc(Cl)s1` [Example 225] yielded a n-fold stimulation of 13.4. For `C[C@@H]1CN(S(=O)(=O)c2ccc(NC(=O)c3ccc(Cl)cc3NS(=O)(=O)c3ccc(Cl)cc3)cc2)C[C@H](C)O1` [Example 226, 4-Chloro-2-(4-chloro-phenylsulfonylamino)-N-(4-(cis-2,6-dimethyl-morpholine-4-sulfonyl)-phenyl)-benzamide], the n-fold stimulation in experiment [1] (concentration c 25 μM) came to 3.3.
